The source of these data is patent publication US20260001853A1, “ASCORBIC ACID DERIVATIVE OR SALT THEREOF, AND COSMETIC THEREOF” (SEIWA KASEI COMPANY, LIMITED, priority 2022, published 2026).

Test [1] relates to Normal human dermal fibroblasts. The test can be described thus: Collagen production promoting effect (ELISA of supernatant). The test is classed as cell-based. The conditions noted are these: amount of collagen produced, % with control group taken as 100%; sample at 10 mmol/L or less, 48 hours, N=3. On the procedure: Normal human dermal fibroblasts were prepared in D-MEM containing 5% (v/v) fetal bovine serum to a cell density of […] cells/well, and pre incubated on a 96-well plate for 24 hours. After removing the medium, samples prepared to a predetermined concentration in D-MEM containing 5% (v/v) fetal bovine serum were added to each well and cultured for 48 hours. After completion of the culture, the amount of free collagen in the supernatant was quantified by ELISA method. The measurement was performed with N=3.
The amount of collagen produced when the samples were measured at a concentration of 10 mmol/L or less was compared with that of the control group, and the results (% values when the control group is taken as 100%) are shown in Tables 15 to 17 based on the following criteria. • <100%: ± • 100-120%: + • 120%: ++
(In an ELISA, binding on a coated surface is turned into a signal by an enzyme label.)

The subject of test [2] is Normal human dermal fibroblasts (NHDF). Description: Hyaluronic acid production promoting effect (ELISA of supernatant). The test is classed as cell-based. Conditions: amount of hyaluronic acid produced, % with control group taken as 100%; sample at 10 mmol/L or less, 48 hours, N=3. On the procedure: Normal human dermal fibroblasts (NHDF) were prepared in D-MEM containing 5% (v/v) fetal bovine serum to a cell density of 2.5× 10^4 cells/well, and then pre-incubated on a 96-well plate for 24 hours. After removing the medium, samples prepared in serum-free D-MEM were added to each well and cultured for 48 hours. After the culture was completed, the amount of hyaluronic acid in the supernatant was quantified by ELISA method. The measurement was performed with N=3.
The amount of hyaluronic acid produced when the samples were measured at a concentration of 10 mmol/L or less was compared with that of the control group, and the results (% values when the control group is taken as 100%) are shown in Tables 18 to 20 based on the following criteria. • <100%: ± • 100-120%: + • 120-150%: ++ • 150%: +++

Another test concerns B16 melanoma 4A5 cells. The test can be described thus: Melanin production inhibitory effect (theophylline-induced melanin production). The test is classed as cell-based, mouse. The conditions noted are these: melanin production inhibition rate, sample at a concentration of 10 mM or less, 3 days culture, theophylline 1 mmol/L, N=4. On the procedure:
As a test of the whitening effect, the effect on theophylline-induced melanin production in B16 melanoma 4A5 cells was evaluated for the ascorbic acid derivatives of the present invention according to the following procedure. A similar evaluation was also performed for a known ascorbic acid derivative for comparison. The results are shown in Tables 9 to 11. • (1) B16 mouse melanoma 4A5 cells were seeded in a 48-well plate at a cell density of 8.0×10^3 cells/well. • (2) After culturing for 24 hours in Dulbecco's modified Eagle's medium (manufactured by SIGMA, hereinafter abbreviated as “D-MEM”) containing 10% fetal bovine serum, the medium was replaced with D-MEM containing 10% fetal bovine serum containing theophylline (final concentration 1 mmol/L) and a specified concentration of a sample. • (3) After culturing for 3 days in the presence of the sample, the medium was removed using an aspirator, distilled water was added, and the cells were disrupted by ultrasonication. • (4) The amount of protein was then quantified using a BCA protein assay kit (manufactured by PIERCE), and the amount of melanin produced was measured by an alkali solubilization method. Sodium hydroxide was added to the cell lysate to a final concentration of 1 mol/L, and the solution was dissolved by heating (60° C., 30 minutes), thereafter the absorbance at 405 nm was measured using a microplate reader. The amount of melanin was calculated from a calibration curve prepared using synthetic melanin (SIGMA) as a standard. The amount of melanin per unit protein was calculated by dividing the amount of melanin by the amount of protein. • (5) The melanin production inhibition rate was calculated using the following formula.
[In the formula, A represents the amount of melanin per unit protein (g/g) when the sample was added, B represents the amount of melanin per unit protein (g/g) in the normal group, and C represents the amount of melanin per unit protein (g/g) in the control group.]
The melanin production inhibition rate when the sample was measured at a concentration of 10 mM or less is expressed as follows. The measurement was performed with N=4. • <20%: ± • 20-40%: + • 40-60%: ++ • 60-100%: +++

In the case of `CCCCCCCCOC1=C(OCC(C)(C)O)[C@@H]([C@@H](O)CO)OC1=O` [Synthesis Example 21, 2-O-octyl-3-O-(2-hydroxyisobutyl) ascorbic acid], the “Collagen production promoting effect” value in test [1] is on record as “++ (120%: ++)”. Also, the “Hyaluronic acid production promoting effect” value in test [2] was “+++ (150%: +++)”. For the same compound, the “Melanin production inhibition effect” value with B16 melanoma 4A5 cells is given as “++ (40-60%: ++)”.
Taken in the same sequence, the figures for `CCCCCCCCCCCCOC1=C(OCC(C)(C)O)[C@@H]([C@@H](O)CO)OC1=O` [Synthesis Example 23, 2-O-dodecyl-3-O-(2-hydroxyisobutyl) ascorbic acid] were “++ (120%: ++)”, “++ (120-150%: ++)” and “+++ (60-100%: +++)”.
For the compound `CCCCCCCCCCCCCCCCOC1=C(OCC(C)(C)O)[C@@H]([C@@H](O)CO)OC1=O` [Synthesis Example 25, 2-O-hexadecyl-3-O-(2-hydroxyisobutyl) ascorbic acid], the “Collagen production promoting effect” value in test [1] is on record as “++ (120%: ++)”. For the same compound, the “Hyaluronic acid production promoting effect” value in test [2] was “++ (120-150%: ++)”. Also, the “Melanin production inhibition effect” value in the test with B16 melanoma 4A5 cells is listed as “+ (20-40%: +)”.
Turning to `C=CCOC1=C(OCC(C)(C)O)[C@@H]([C@@H](O)CO)OC1=O` [Synthesis Example 26, 2-O-allyl-3-O-(2-hydroxyisobutyl) ascorbic acid], the “Collagen production promoting effect” value in test [1] was “++ (120%: ++)”. The “Hyaluronic acid production promoting effect” value in test [2] is reported as “++ (120-150%: ++)”. In addition, in the test on B16 melanoma 4A5 cells, the “Melanin production inhibition effect” value is listed as “+ (20-40%: +)”.
Taken in the same sequence, the figures for `CC(C)(O)COC1=C(OCc2ccccc2)C(=O)O[C@@H]1[C@@H](O)CO` [Synthesis Example 27, 2-O-benzyl-3-O-(2-hydroxyisobutyl) ascorbic acid] were “++ (120%: ++)”, “+++ (150%: +++)” and “++ (40-60%: ++)”.
Regarding `CCCOC1=C(OCC(C)(C)O)C(=O)O[C@@H]1[C@@H](O)CO` [Synthesis Example 32, 2-O-(2-hydroxyisobutyl)-3-O-propylascorbic acid], the “Collagen production promoting effect” value in test [1] is “++ (120%: ++)”. The “Hyaluronic acid production promoting effect” value in test [2] is reported as “++ (120-150%: ++)”. Further, the “Melanin production inhibition effect” value with B16 melanoma 4A5 cells is reported as “++ (40-60%: ++)”.
The like results for `CCCOC1=C(OCC(C)(C)O)[C@@H]([C@@H](O)CO)OC1=O` [Synthesis Example 33, 2-O-propyl-3-O-(2-hydroxyisobutyl) ascorbic acid] were, in that order, “++ (120%: ++)”, “++ (120-150%: ++)” and “++ (40-60%: ++)”.
Taken in the same sequence, the figures for `CC(O)COC1=C(OCC(C)(C)O)C(=O)O[C@@H]1[C@@H](O)CO` (stereo partly drawn) [Synthesis Example 34, 2-O-(2-hydroxyisobutyl)-3-O-(2-hydroxypropyl) ascorbic acid] were “+ (100-120%: +)”, “++ (120-150%: ++)” and “+++ (60-100%: +++)”.
The like results for `CCC(O)COC1=C(OCC(C)(C)O)C(=O)O[C@@H]1[C@@H](O)CO` (stereo partly drawn) [Synthesis Example 35, 2-O-(2-hydroxyisobutyl)-3-O-(2-hydroxybutyl) ascorbic acid] were, in that order, “++ (120%: ++)”, “++ (120-150%: ++)” and “++ (40-60%: ++)”.
